Measurements taken from US20130309184A1, “1,3-DIOXAN-5-ONE COMPOUNDS” (MERCK PATENT GMBH, priority 2011, published 2013).

Experiments:
Format in all cases: physicochemical
[1] = Absorption strength (absorption spectrum in ethanol); design: λmax: unit not given here; settings: for λmax: absorption maximum, dilute solution in ethanol; for E1% value: extinction at the absorption maximum extrapolated to 1 g/100 ml; for E1% value / Half-value width: ethanol; for Half-value width: half-value width of the absorption band
Method: The measure used for the absorption strength is the so-called E1% value, and the half-value width of the absorption band in relation to the absorption maximum λmax indicated. The E1% value indicates the extinction at the absorption maximum extrapolated to a concentration of 1 g/100 ml. To this end, an absorption spectrum of the substance in ethanol is recorded in dilute solution. The values are compared with the reference spectra of curcumin and beta-carotene.

[2] = Thermal stability by thermogravimetry; settings: for Temperature at which 98% of the weight were still present: TGA, RT to 800° C., heating rate 10K/min; for thermal stabilities: verbal assessment, high-temperature processing possible without decomposition
Method: The thermal stability is determined with the aid of the thermogravimetry method (instrument TGA Q5000 V3.10 Build 258, temperature range RT to 800° C., heating rate 10K/min).

[3] = Solubility determination in phenethyl benzoate (X-Tend 226)
Method: The solubility determination was carried out in phenethyl benzoate (X-Tend 226): […]

[4] = Fluorescence measurements; settings: in ethanol; measurement concentration 0.00436 mg/ml (Example 4), 0.00048 mg/ml (Example 8), 0.00045 mg/ml (Example 17)
Method: The substance concentrations in ethanol indicated in the table are measured using an Aminco Bowman 2 fluorescence spectrometer (cell thickness 1 cm; excitation 220-600 nm; emission 220-800 nm; spectral gap width (excitation) 4 nm, (emission) 8 nm; recording speed 10 nm/min; step width (excitation) 5 nm, (emission) 4 nm.

SMILES	λmax [1]	E1% value [1]	Half-value width [1] [nm]	Temperature at which 98% of the weight were still present [2] [° ° C.]	Solubility in X-Tend 226 [3] [%]	thermal stabilities [2]	Emission [4] [nm]	Excitation [4] [nm]
CC1=C(/C=C/C(C)=C/C=C/C(C)=C/C=C/C=C(C)/C=C/C=C(C)/C=C/C2=C(C)CCCC2(C)C)C(C)(C)CCC1 [Beta-carotene, beta-carotene, reference compound]	453	408	88	84	0.2	–	–	–
COc1cc(/C=C/C(=O)CC(=O)/C=C/c2ccc(O)c(OC)c2)ccc1O [Curcumin, curcumin, reference compound]	426	1507	78	223	0.4	–	–	–
CCOC1(C)O/C(=C\c2ccc(OC)cc2)C(=O)/C(=C/c2ccc(OC)cc2)O1 (stereo not shown) [Example 1, (4Z,6Z)-2-ethoxy-4,6-bis[(4-methoxyphenyl)methylene]-2-methyl-1,3-dioxan-5-one]	402	873	84	–	2.8	–	–	–
CCOC1(C)O/C(=C\c2ccc(OC)c(OC)c2)C(=O)/C(=C/c2ccc(OC)c(OC)c2)O1 (stereo not shown) [Example 2]	412	617	85	–	1.2	–	–	–
CCOC1(C)O/C(=C\c2ccc(OC)cc2OC)C(=O)/C(=C/c2ccc(OC)cc2OC)O1 (stereo not shown) [Example 3]	419	688	93	–	1.0	–	–	–
CCOC1(C)O/C(=C\c2cc(OC)c(OC)cc2OC)C(=O)/C(=C/c2cc(OC)c(OC)cc2OC)O1 (stereo not shown) [Example 4]	444	304	92	256	<0.1	excellent	596	440
CCOC1(C)O/C(=C\c2cc(OC)c(OC)c(OC)c2)C(=O)/C(=C/c2cc(OC)c(OC)c(OC)c2)O1 (stereo not shown) [Example 5]	394	647	85	–	1.1	–	–	–
CCCCCCCCOc1ccc(/C=C2\OC(C)(OCC)O/C(=C\c3ccc(OCCCCCCCC)cc3)C2=O)cc1 (stereo not shown) [Example 6, (4Z,6Z)-4,6-bis[(4-octyloxyphenyl)methylene]-2-ethoxy-2-methyl-1,3-dioxan-5-one]	404	557	87	–	1.0	–	–	–
CCOC1(C)O/C(=C\c2ccc(Oc3ccccc3)cc2)C(=O)/C(=C/c2ccc(Oc3ccccc3)cc2)O1 (stereo not shown) [Example 7, (4Z,6Z)-4,6-bis[(4-phenoxyyphenyl)methylene]-2-ethoxy-2-methyl-1,3-dioxan-5-one]	389	675	84	–	2.2	–	–	–
CCCCN(CCCC)c1ccc(/C=C2\OC(C)(OCC)O/C(=C\c3ccc(N(CCCC)CCCC)cc3)C2=O)cc1 (stereo not shown) [Example 8, (4Z,6Z)-4,6-bis[[(4-dibutylamino)phenyl]methylene]-2-ethoxy-2-methyl-1,3-dioxan-5-one]	486	953	105	274	2.8	excellent	640	485
CCOC1(C)O/C(=C\c2ccc(N(C)C)cc2OC)C(=O)/C(=C/c2ccc(N(C)C)cc2OC)O1 (stereo not shown) [Example 17, 2-ethoxy-2,6-bis-[1-(4-dimethylamino-2-methoxyphenyl)meth-(Z)ylidene]-2-methyl-1,3-dioxan-5-one]	–	–	–	–	–	–	632	490
